The target in test [1] is isolated recombinant JAK2 kinase domain (Homo sapiens (Human), UniProt O60674). As to the kind of experiment: JAK2 enzyme assay (Caliper LabChip, Ki). The test is classed as biochemical. In a few lines:
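Caliper LabChip readout of phosphorylated product as a fraction of total substrate, a fluorescently N-terminally labelled JAK3-derived peptide. Isolated human JAK kinase domains were incubated 30 min at 22 °C before EDTA quench (50 mM final).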

In test [2] the test system is JAK1-dependent STAT6 phosphorylation downstream of IL-13 stimulation in BEAS-2B human bronchial epithelial cells. Put plainly: JAK1 pathway assay in BEAS-2B cells (IL-13-pSTAT6, MSD). The test is classed as cell-based. To be noted: Homo sapiens, BEAS-2B, BEAS-2B cells, IL-13 stimulation; read-out: IL-13 p-STAT6 BEAS-2B IC50.
For test [3], the target named is isolated recombinant JAK1 kinase domain (Homo sapiens (Human), UniProt P23458). Put plainly: JAK1 enzyme assay (Caliper LabChip, Ki). The class given is biochemical. The conditions noted are these: read-out: JAK1 Ki. In a few lines: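 Ki derived via Morrison tight-binding model, ATP-competitive correction applied. Read-out: product/total ratio of a 5-carboxyfluorescein-tagged JAK3 peptide separated on Caliper LabChip after phosphorylation by isolated human JAK1 kinase domain (22 °C, 30 min; EDTA quench, 50 mM final).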
Sequence of isolated recombinant JAK1 kinase domain (P23458 875-1153): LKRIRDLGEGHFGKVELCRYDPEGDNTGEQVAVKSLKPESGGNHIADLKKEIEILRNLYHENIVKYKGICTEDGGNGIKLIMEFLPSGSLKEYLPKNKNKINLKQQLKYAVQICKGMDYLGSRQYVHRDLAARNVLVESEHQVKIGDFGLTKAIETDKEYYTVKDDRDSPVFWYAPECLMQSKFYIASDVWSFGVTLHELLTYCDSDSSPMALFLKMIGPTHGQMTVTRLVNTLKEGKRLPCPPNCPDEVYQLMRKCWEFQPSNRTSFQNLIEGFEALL

Sequence of isolated recombinant JAK2 kinase domain (O60674 849-1124): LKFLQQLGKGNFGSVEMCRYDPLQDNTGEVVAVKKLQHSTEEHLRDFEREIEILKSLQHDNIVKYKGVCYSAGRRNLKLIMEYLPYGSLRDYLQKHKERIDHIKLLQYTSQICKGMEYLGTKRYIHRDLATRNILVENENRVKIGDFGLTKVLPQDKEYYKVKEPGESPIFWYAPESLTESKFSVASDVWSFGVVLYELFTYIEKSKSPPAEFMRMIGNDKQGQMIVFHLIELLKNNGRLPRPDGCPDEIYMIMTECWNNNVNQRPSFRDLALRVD

Turning to `N#CCC1(n2cc(C(N)=O)c(NC(=O)C3CC3)n2)CCN(Cc2ccc(-c3ccccc3)c(F)c2)CC1` [Example 140, 1-[4-(cyanomethyl)-1-[(3-fluoro-4-phenyl-phenyl)methyl]-4-piperidyl]-3-(cyclopropanecarbonylamino) pyrazole-4-carboxamide], the Ki (usually a measure of affinity in units of concentration, obtained from inhibition or displacement) in test [1] was 4.4 nM; in test [3] it was 0.6 nM. In test [2], the IC50 – broadly, the concentration needed to halve the response being measured – was 49 nM.

In the case of `C=C(C)c1ccc(CN2CCC(CC#N)(n3cc(C(N)=O)c(NC(=O)C4CC4)n3)C(F)C2)cc1` (stereo not drawn) [Example 259, 1-[4-(cyanomethyl)-3-fluoro-1-[(4-isopropenylphenyl)methyl]-4-piperidyl]-3-(cyclopropanecarbonylamino) pyrazole-4-carboxamide], the Ki in test [1] came out at 1.8 nM; in test [3], 0.84 nM. In addition, the concentration for half-maximal inhibition (IC50) in test [2] was 50 nM.

For the compound `N#CCC1(n2cc(C(N)=O)c(NC(=O)OC3CC3)n2)CCN(Cc2ccc(-c3ccccc3)c(O)c2)CC1` [Example 209, cyclopropyl N-[4-carbamoyl-1-[4-(cyanomethyl)-1-[(3-hydroxy-4-phenyl-phenyl)methyl]-4-piperidyl]pyrazol-3-yl]carbamate], the inhibition constant Ki in test [1] is 3.8 nM; in test [3], 0.49 nM. In addition, in test [2], the half-inhibitory concentration (IC50) came to 98 nM.

`CCOC(=O)Nc1nn(C2(CC#N)CCN(Cc3ccc(-n4nccn4)cc3)CC2F)cc1C(N)=O` (stereo not drawn) [Example 225, ethyl N-[4-carbamoyl-1-[4-(cyanomethyl)-3-fluoro-1-[[4-(triazol-2-yl)phenyl]methyl]-4-piperidyl]pyrazol-3-yl]carbamate]: the values for the Ki in test [1] and in test [3] were 1.3 nM and 0.62 nM, respectively. In test [2], the IC50 stood at 44 nM.

On to `COC(=O)Nc1nn(C2(CC#N)CCN(Cc3ccc(-c4csc(C)n4)cc3)CC2F)cc1C(N)=O` (stereo not drawn) [Example 249, methyl N-[4-carbamoyl-1-[4-(cyanomethyl)-3-fluoro-1-[[4-(2-methylthiazol-4-yl)phenyl]methyl]-4-piperidyl]pyrazol-3-yl]carbamate], for which the Ki is 0.56 nM in test [1] and 0.52 nM in test [3]. Moreover, the IC50 in test [2] amounted to 26 nM.

Consider `N#CCC1(n2cc(C(N)=O)c(NC(=O)C3CC3)n2)CCN(Cc2ccc(-c3ccccc3)cc2)CC1` [Example 6, 1-(1-([1,1′-Biphenyl]-4-ylmethyl)-4-(cyanomethyl)piperidin-4-yl)-3-(cyclopropanecarboxamido)-1H-pyrazole-4-carboxamide], for which the Ki in test [1] amounted to 3.6 nM; in test [3] it was 0.8 nM. The IC50 in test [2] is 31 nM.

Turning to `CCc1ccc(-c2ccc(CN3CCC(CC#N)(n4cc(C(N)=O)c(NC(=O)OC)n4)C(F)C3)cc2)o1` (stereo not drawn) [Example 232, methyl N-[4-carbamoyl-1-[4-(cyanomethyl)-1-[[4-(5-ethyl-2-furyl)phenyl]methyl]-3-fluoro-4-piperidyl]pyrazol-3-yl]carbamate], the results for the inhibition constant (Ki) in test [1] and in test [3] were 0.89 nM and 0.32 nM, respectively. Also, the IC50 in test [2] is 20 nM.

Regarding `COC1(C(F)(F)F)CN([C@H]2CC[C@@](CC#N)(n3cc(C(N)=O)c(NC(=O)C4CC4)n3)CC2)C1` [Example 131], the Ki came out at 18.7 nM in test [1] and 2.8 nM in test [3]. Moreover, in test [2], the IC50 was 334 nM.

Regarding `N#CCC1(n2cc(C(N)=O)c(NC(=O)C3CC3)n2)CCN(Cc2ccc(-c3ccccc3)nc2)CC1F` (stereo not drawn) [Example 193, 1-[4-(cyanomethyl)-3-fluoro-1-[(6-phenyl-3-pyridyl)methyl]-4-piperidyl]-3-(cyclopropanecarbonylamino) pyrazole-4-carboxamide], the inhibitory constant (Ki) in test [1] was 0.26 nM; in test [3] it was 0.33 nM. Besides, the IC50 in test [2] is 48 nM.

Consider `N#CCC1(n2cc(C(N)=O)c(NC(=O)C3CC3)n2)CCN(Cc2ccc(-n3nccn3)cc2)CC1` [Example 89], for which the Ki in test [1] turned out to be 6.8 nM; in test [3], 0.7 nM. In test [2], the IC50 was 119 nM.

In the case of `C=C(C)c1cc(F)c(CN2CCC(CC#N)(n3cc(C(N)=O)c(NC(=O)OC)n3)C(F)C2)cc1O` (stereo not drawn) [Example 274, methyl N-[4-carbamoyl-1-[4-(cyanomethyl)-3-fluoro-1-[(2-fluoro-5-hydroxy-4-isopropenyl-phenyl)methyl]-4-piperidyl]pyrazol-3-yl]carbamate], the Ki in test [1] amounted to 0.61 nM; in test [3] it was 0.58 nM. The IC50 in test [2] turned out to be 38 nM.

For `N#CCC1(n2cc(C(N)=O)c(NC(=O)C3CC3)n2)CCC(Nc2ccccc2)CC1` (stereo not drawn) [Example 282, 1-[4-anilino-1-(cyanomethyl)cyclohexyl]-3-(cyclopropanecarbonylamino) pyrazole-4-carboxamide], the Ki turned out to be 9.6 nM in test [1] and 0.62 nM in test [3]. In addition, the IC50 in test [2] worked out at 48 nM.

As to `N#CCC1(n2cc(C(N)=O)c(NC(=O)C3CC3)n2)CCN(Cc2ccc(-c3ccc(C(F)(F)F)cc3)nc2)CC1` [Example 166, 1-[4-(cyanomethyl)-1-[[6-[4-(trifluoromethyl)phenyl]-3-pyridyl]methyl]-4-piperidyl]-3-(cyclopropanecarbonylamino) pyrazole-4-carboxamide], the Ki in test [1] was found to be 80 nM; in test [3] it was 2.2 nM. In addition, the IC50 in test [2] was 68 nM.

On to `N#CCC1(n2cc(C(N)=O)c(NC(=O)C3CC3)n2)CCN(Cc2ccc(-c3ccc(Cl)cc3)cc2)CC1` [Example 147, 1-[1-[[4-(4-chlorophenyl)phenyl]methyl]-4-(cyanomethyl)-4-piperidyl]-3-(cyclopropanecarbonylamino) pyrazole-4-carboxamide], for which the Ki in test [1] amounted to 32 nM; in test [3], 2.1 nM. In addition, the IC50 in test [2] worked out at 51 nM.

As for `C#Cc1ccc(CN2CCC(CC#N)(n3cc(C(N)=O)c(NC(=O)OC)n3)C(F)C2)c(Cl)c1` (stereo not drawn) [Example 289, methyl N-[4-carbamoyl-1-[1-[(2-chloro-4-ethynyl-phenyl)methyl]-4-(cyanomethyl)-3-fluoro-4-piperidyl]pyrazol-3-yl]carbamate], the Ki in test [1] came to 0.55 nM; in test [3] it was 0.26 nM. In test [2], the IC50 was found to be 15 nM.

Consider `CS(=O)(=O)Nc1cc(CN2CCC(CC#N)(n3cc(C(N)=O)c(NC(=O)C4CC4)n3)CC2)ccc1F` [Example 79], for which the results for the Ki in test [1] and in test [3] were 14.2 nM and 3 nM, respectively. The IC50 in test [2] was > 1000 nM.

In the case of `N#CCC1(n2cc(C(N)=O)c(NC(=O)C3CC3)n2)CCN(Cc2ccc3c(c2)[nH]c2ccccc23)CC1` [Example 95], the Ki in test [1] is 6.3 nM; in test [3], 1.2 nM. In addition, the IC50 in test [2] stood at 275 nM.

For `N#CCC1(n2cc(C(N)=O)c(NC(=O)C3CC3)n2)CCN(Cc2ccc(-c3csc(Cl)c3)cc2)CC1` [Example 149, 1-[1-[[4-(5-chloro-3-thienyl)phenyl]methyl]-4-(cyanomethyl)-4-piperidyl]-3-(cyclopropanecarbonylamino) pyrazole-4-carboxamide], the results for the Ki in test [1] and in test [3] were 4.7 nM and 0.7 nM, respectively. The IC50 in test [2] worked out at 41 nM.

Regarding `N#CCC1(n2cc(C(N)=O)c(NC(=O)C3CC3)n2)CCN(C(=O)OCC(F)(F)F)CC1` [Example 167, 2,2,2-trifluoroethyl 4-[4-carbamoyl-3-(cyclopropanecarbonylamino)pyrazol-1-yl]-4-(cyanomethyl)piperidine-1-carboxylate], the inhibition constant Ki worked out at 28.7 nM in test [1] and 2.3 nM in test [3]. In addition, the IC50 in test [2] was 833 nM.

With `N#CCC1(n2cc(C(N)=O)c(NC(=O)C3CC3)n2)CCN(Cc2ccc(-c3ccccc3)nc2F)CC1` [Example 188, 1-[4-(cyanomethyl)-1-[(2-fluoro-6-phenyl-3-pyridyl)methyl]-4-piperidyl]-3-(cyclopropanecarbonylamino) pyrazole-4-carboxamide], the Ki in test [1] amounted to 1.4 nM; in test [3], 0.6 nM. The IC50 in test [2] is 34 nM.

Consider `COC(=O)Nc1nn(C2(CC#N)CCN(Cc3cc(O)c(-c4ccco4)cc3F)CC2F)cc1C(N)=O` (stereo not drawn) [Example 238, methyl N-[4-carbamoyl-1-[4-(cyanomethyl)-3-fluoro-1-[[2-fluoro-4-(2-furyl)-5-hydroxy-phenyl]methyl]-4-piperidyl]pyrazol-3-yl]carbamate], for which the Ki turned out to be 0.35 nM in test [1] and 0.29 nM in test [3]. For the same compound, the IC50 in test [2] turned out to be 18 nM.

As to `N#CCC1(n2cc(C(N)=O)c(NC(=O)C3CC3)n2)CCN(Cc2ccc(-c3ccccc3F)cc2)CC1` [Example 142, 1-[4-(cyanomethyl)-1-[[4-(2-fluorophenyl)phenyl]methyl]-4-piperidyl]-3-(cyclopropanecarbonylamino) pyrazole-4-carboxamide], the Ki in test [1] worked out at 12.9 nM; in test [3] it was 1.7 nM. The IC50 in test [2] was 60 nM.

As to `N#CCC1(n2cc(C(N)=O)c(NC(=O)C3CC3)n2)CCN(Cc2ccc(-c3csc(Cl)c3)nc2)CC1` [Example 16, 1-(1-((6-(5-Chlorothiophen-3-yl)pyridin-3-yl)methyl)-4-(cyanomethyl)piperidin-4-yl)-3-(cyclopropanecarboxamido)-1H-pyrazole-4-carboxamide], the Ki turned out to be 2.4 nM in test [1] and 0.5 nM in test [3]. For the same compound, the IC50 in test [2] came out at 85 nM.

`N#CCC1(n2cc(C(N)=O)c(NC(=O)C3CC3)n2)CCN(Cc2ccc(-c3ccccc3)nc2F)CC1F` (stereo not drawn) [Example 201, 1-[4-(cyanomethyl)-3-fluoro-1-[(2-fluoro-6-phenyl-3-pyridyl)methyl]-4-piperidyl]-3-(cyclopropanecarbonylamino) pyrazole-4-carboxamide]: the inhibition constant Ki in test [1] is 0.23 nM; in test [3], 0.24 nM. For the same compound, the IC50 in test [2] is 23 nM.

`N#CCC1(n2cc(C(N)=O)c(NC(=O)C3CC3)n2)CCN(Cc2ccc(Cl)cc2)CC1` [Example 60]: the inhibition constant Ki turned out to be 23.4 nM in test [1] and 3.9 nM in test [3]. For the same compound, in test [2], the IC50 stood at 94 nM.

(Values after US11731943B2, “Therapeutic compounds, compositions and methods of use thereof” (priority 2016, dated 2023).)
